Measured values from ChEMBL document CHEMBL3885861, “Open TG-GATES”.

Organism: Rattus norvegicus
Assay: Open TG-GATES - Regimen: Daily Repeat
Type: toxicity, organism-based, Sprague-Dawley
Design: regimen Daily Repeat, gender Male, age 6 weeks
Conditions: in vivo, iv, route intravenous injection; for APTT / Bas / Eos / Fbg / Hb / Ht / Lym / MCV / Mono / Plat / RBC / Ret / WBC / MCHC / PT: tissue Blood; for KIDNEY_L / KIDNEY_R / KIDNEY_TOTAL: tissue Kidney; for ALP / ALT / BUN / CRE / DBIL / GLC / IP / K / LDH / PL / RALB / TBIL / TC / TG / TP / gamma-GTP / AST: tissue Plasma; for LIVER: tissue Liver
[1] = 0 mg/kg, 72 h, dose level Control, time 3 day
[2] = 0 mg/kg, […], dose level Control, time 7 day
[3] = 0 mg/kg, […], dose level Control, time 14 day
[4] = 0 mg/kg, […], dose level Control, time 28 day
[5] = 1 mg/kg, 72 h, dose level High, time 3 day

## CISPLATIN
[1]
  TERMINAL_BW: 225.2 g
  APTT: 23.7 s
  Bas: 0%
  Eos: 1%
  Fbg: 289.6 mg/dL
  Hb: 12.9 g/dL
  Ht: 39.8%
  Lym: 80.8%
  MCV: 63 fL
  Mono: 2.6%
  Plat: 132.8 x10_4/uL
  RBC: 631.8 x10_4/ul
  Ret: 5.8%
  WBC: 106.8 x10_2/uL
  KIDNEY_L: 1 g
  KIDNEY_R: 1 g
  KIDNEY_TOTAL: 1.9 g
  ALP: 1659.4 IU/L
  ALT: 40.4 IU/L
  BUN: 16.2 mg/dL
  CRE: 0.2 mg/dL
  DBIL: 0 mg/dL
  GLC: 196.6 mg/dL
  IP: 6.7 mg/dL
  K: 4.2 meq/L
  LDH: 219.6 IU/L
  PL: 136 mg/dL
  RALB: 2.9 g/dL
  TBIL: 0.004 mg/dL
  TC: 69.4 mg/dL
  TG: 113.4 mg/dL
  TP: 5.4 g/dL
  gamma-GTP: 1.6 IU/L
[2]
  TERMINAL_BW: 261.4 g
  APTT: 24.4 s
  Bas: 0%
  Eos: 1%
  Fbg: 309.2 mg/dL
  Ht: 40.3%
  Lym: 80%
  MCHC: 32.7%
  MCV: 63.8 fL
  Mono: 2.4%
  PT: 16.1 s
  Plat: 128.5 x10_4/uL
  RBC: 632.6 x10_4/ul
  Ret: 5.5%
  WBC: 155.9 x10_2/uL
  KIDNEY_L: 1.1 g
  KIDNEY_R: 1.1 g
  KIDNEY_TOTAL: 2.2 g
  LIVER: 12.3 g
  ALP: 1680.4 IU/L
  ALT: 40.2 IU/L
  BUN: 17.6 mg/dL
  CRE: 0.2 mg/dL
  DBIL: 0 mg/dL
  IP: 7.2 mg/dL
  K: 4.3 meq/L
  LDH: 185.6 IU/L
  PL: 135.8 mg/dL
  RALB: 2.9 g/dL
  TBIL: 0.002 mg/dL
  TC: 69.2 mg/dL
  TG: 124.6 mg/dL
  TP: 5.4 g/dL
  gamma-GTP: 2.2 IU/L
[3]
  TERMINAL_BW: 291.7 g
  APTT: 23.9 s
  Bas: 0%
  Eos: 0.8%
  Fbg: 345.4 mg/dL
  Ht: 41.9%
  Lym: 80.8%
  MCHC: 33%
  MCV: 60.9 fL
  Mono: 2.8%
  PT: 15.9 s
  Plat: 117.5 x10_4/uL
  RBC: 688.8 x10_4/ul
  Ret: 3.8%
  WBC: 116.1 x10_2/uL
  KIDNEY_L: 1.2 g
  KIDNEY_R: 1.2 g
  KIDNEY_TOTAL: 2.3 g
  ALP: 1400.6 IU/L
  ALT: 41.2 IU/L
  AST: 81.4 IU/L
  BUN: 19 mg/dL
  CRE: 0.2 mg/dL
  DBIL: 0 mg/dL
  GLC: 182.2 mg/dL
  IP: 7.2 mg/dL
  K: 4.3 meq/L
  LDH: 164.4 IU/L
  PL: 146.8 mg/dL
  RALB: 3.1 g/dL
  TBIL: 0.002 mg/dL
  TC: 70.4 mg/dL
  TG: 117.6 mg/dL
  TP: 5.8 g/dL
  gamma-GTP: 1.8 IU/L
[4]
  TERMINAL_BW: 381.4 g
  APTT: 24.5 s
  Bas: 0%
  Eos: 1.2%
  Fbg: 311.4 mg/dL
  Hb: 14.6 g/dL
  Ht: 42.7%
  Lym: 81.4%
  MCHC: 34.1%
  MCV: 56.4 fL
  Mono: 3%
  PT: 16 s
  Plat: 104.7 x10_4/uL
  RBC: 757.6 x10_4/ul
  Ret: 2.2%
  WBC: 114.2 x10_2/uL
  KIDNEY_L: 1.3 g
  KIDNEY_R: 1.3 g
  KIDNEY_TOTAL: 2.7 g
  LIVER: 15.5 g
  ALP: 1048.2 IU/L
  ALT: 37.8 IU/L
  AST: 65.2 IU/L
  BUN: 19.2 mg/dL
  CRE: 0.2 mg/dL
  DBIL: 0 mg/dL
  GLC: 196.6 mg/dL
  IP: 6.4 mg/dL
  K: 4.2 meq/L
  LDH: 130.2 IU/L
  RALB: 3.1 g/dL
  TBIL: 0.004 mg/dL
  TC: 74.2 mg/dL
  TG: 141.8 mg/dL
  TP: 6 g/dL
  gamma-GTP: 2.8 IU/L
[5]
  APTT: 23.7 s
  Bas: 0%
  Eos: 1%
  Fbg: 288.4 mg/dL
  Ht: 40.9%
  Lym: 87%
  MCHC: 33%
